From patent US20240165078A1, “THERAPEUTIC TARGETING OF RECEPTOR TYROSINE KINASE INHIBITOR-INDUCED ANDROGEN RECEPTOR PHOSPHORYLATION IN CANCER” (Indiana University Research and Technology Corporation, priority 2018, published 2024)
Where a SMILES comes first, the peptide text is derived from it. The star is where a group is joined. Cbz = O=C(OCc1ccccc1)*

Legend:
LNCaP cells = assay: LNCaP cell phenotype and drug activity; format: cell-based; conditions: sunitinib-exposed LNCaP cells
KLK2 [1] = assay: Human KLK2 ELISA, tissue culture supernatant; format: cell-based; conditions: in vitro, RCC cell lines
CDK1 = assay: Western blot for CDK1 in RP-R-02LM tumors treated in vivo; conditions: RP-R-02LM intrinsically sunitinib-resistant tumors
Excerpt: Cells were maintained and cultured in the appropriate media, supplemented with 10% FBS and 1% penicillin and streptomycin. All cells are routinely tested and checked for the absence of mycoplasma. […] Crystal violet assay (Sigma) was used to evaluate cells growth after different time point-treatment, and absorbance was read using a spectrometer (xMarks Spectrometer, Bio-Rad). […] Six-week-old homozygous ICR, Severe Combined Immune-deficient (SCID) female mice were housed in a sterile, pathogen-free facility and maintained in a temperature controlled room, under a 12-hour light/dark schedule with water and food ad libitum. […] All mice were operated under sedation with oxygen, isoflurane and buprenorphine. When tumors were established, and reached 50 mm^2, mice were randomly grouped and placed in either control group or treatment groups (n=5-10). […] Tumor burden was assessed once a week by caliper measurement of two diameters of the tumor (L×W=mm^2) and reported as tumor volume ((L×W2)/2=mm^3). Body weights were assessed using a weighing scale and recorded in grams. Endpoint tumor weights were assessed using a weigh scale and recorded in grams. […]
Whole cell protein extracts from tissue and cell were denatured, separated on SDS-PAGE gels and transferred to nitrocellulose membranes. […] Quantitative measurements of Western blot analysis were performed using ImageJ and Graph-Pad software (Prism 7).

androgen receptor [2] = molecular target: T1, androgen receptor (Homo sapiens, UniProt P10275); assay: AR expression by immunofluorescence in RCC cells (sunitinib, enzalutamide, combination, ±MG132); format: cell-based; conditions: 786-0R and UMRC2 cells
T1 construct: Baseline AR expression was high in 786-0R and UMRC2 cells; host or cells: 786-0, 786-0R, UMRC2
T1 sequence (P10275 1-920): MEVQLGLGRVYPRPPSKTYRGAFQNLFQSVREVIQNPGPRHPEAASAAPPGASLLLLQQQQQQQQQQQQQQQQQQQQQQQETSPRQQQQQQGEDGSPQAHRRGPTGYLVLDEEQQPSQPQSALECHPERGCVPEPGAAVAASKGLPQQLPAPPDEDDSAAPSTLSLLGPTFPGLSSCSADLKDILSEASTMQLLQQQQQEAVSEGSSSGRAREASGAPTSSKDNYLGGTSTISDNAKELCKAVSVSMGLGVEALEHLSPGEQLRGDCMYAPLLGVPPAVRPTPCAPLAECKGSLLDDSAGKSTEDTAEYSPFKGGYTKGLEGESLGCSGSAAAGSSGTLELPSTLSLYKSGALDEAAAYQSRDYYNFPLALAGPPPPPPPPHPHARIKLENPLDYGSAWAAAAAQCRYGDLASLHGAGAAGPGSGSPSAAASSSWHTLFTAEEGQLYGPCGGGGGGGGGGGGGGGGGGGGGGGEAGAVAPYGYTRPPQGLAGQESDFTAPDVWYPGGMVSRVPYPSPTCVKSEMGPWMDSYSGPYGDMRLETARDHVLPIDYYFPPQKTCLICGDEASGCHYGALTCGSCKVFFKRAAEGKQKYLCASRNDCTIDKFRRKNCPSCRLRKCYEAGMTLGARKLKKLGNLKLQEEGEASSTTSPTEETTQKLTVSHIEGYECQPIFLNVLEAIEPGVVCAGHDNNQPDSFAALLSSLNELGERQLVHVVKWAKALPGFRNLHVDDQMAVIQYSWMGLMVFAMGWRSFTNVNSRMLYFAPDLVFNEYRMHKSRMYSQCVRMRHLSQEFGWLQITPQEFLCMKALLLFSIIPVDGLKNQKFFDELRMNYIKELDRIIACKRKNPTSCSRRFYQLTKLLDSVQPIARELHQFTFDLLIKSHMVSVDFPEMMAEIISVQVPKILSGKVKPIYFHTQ

androgen receptor [3] = molecular target: T1, androgen receptor; assay: AR expression by immunofluorescence in UMRC2siSPOP cells; format: cell-based; conditions: UMRC2siSPOP compared to UMRC2, in the presence of sunitinib
786-OAR cells = assay: Sunitinib dose-response proliferation assay, AR-overexpressing cells; format: cell-based; conditions: Homo sapiens; 786-OAR (786-0 overexpressing ARwt)
Protocol: (§1) AR expression was also assessed in other RCC cell lines (FIG. 1E).

786-0 tumors = assay: 786-0 RCC tumor model in mice; format: in vivo
KLK2 [4] = assay: KLK2 serum level in RCC PDX models RP-R-02 and RP-R-02LM; format: in vivo, human; conditions: sunitinib acquired (RP-R-02) and intrinsic (RP-R-02LM) resistance models
KLK2 [5] = assay: KLK2 ELISA in plasma of kidney cancer patients; format: in vivo, human; conditions: kidney cancer patients treated with sunitinib
[6] = tested on: AR+ RCC cell lines (786-0R, UMRC2, Caki2); assay: Crystal violet cell viability assay, AR+ RCC cell lines; format: cell-based, human
Protocol: as §1

786-0 cells = assay: Sunitinib dose-response proliferation assay; format: cell-based; conditions: Homo sapiens
Protocol: as §1

[7] = tested on: AR targeted genes (KLK2, KLK4, ZBTB16, MYC); assay: q-PCR of AR targeted genes after sunitinib; format: cell-based, human; conditions: 786-0R and UMRC2 cells, sunitinib treatment
Protocol: RNA was extracted in accordance with manufacturer's protocol (miRNeasy; Qiagen), and RNA sequencing was performed as previously described (25). In brief, RNA illumine sequencing reads were de-multiplex, aligned against human genome (hg19), and results aligned to BAM formatted sequence alignment map via cufflinks program. Differential expressed transcripts were identified between 786-0 and 786-0R samples, and ranked based on the square root of the sum of squares for the log 2 fold change. For qRT-PCR analysis, gene expression assessment on AR target genes was performed using the Prime PCR array (Bio-Rad) according to manufacturer's protocol. AR primer used is forward primer; 5-[…]-3 (SEQ ID NO:1) and reverse primer; 5-[…]-3 (SEQ ID NO:2). In brief, the denaturation step was carried out at 95° C. for 10 seconds; the annealing step was carried out at 58° C. for 30 seconds, and extension step at 72° C. for 1 minute using the applied Biosystems 7900HT fast real-time PCR system (Applied Biosystems). Sequence Detection Systems Software v2.3 was used to identify cycle threshold (Ct) values and generate gene expression curves. All data were normalized to either GAPDH expression.
Gene expression of AR targeted genes was then examined in the presence or absence of sunitinib treatment.

786-0R cells = assay: Ki67 immunofluorescence staining; format: cell-based, human; conditions: in the presence of sunitinib and enzalutamide
Protocol: as §1

KLK2 [8] = assay: Human KLK2 ELISA, serum of 786-0 tumor bearing mice; format: in vivo; conditions: 786-0 model, end-point

AR expression (androgen receptor [2]) | AR expression (androgen receptor [3]) | IC50 (786-OAR cells) [µM] | IC50 for sunitinib by AR status ([6]; AR+ lines (786-0R, UMRC2, Caki2) compared to AR- lines (786-0, ACHN)) | IC50 (786-0 cells) [µM] | SMILES | activity of enzalutamide (LNCaP cells) | KLK2 in tissue culture supernatant (KLK2 [1]) | CDK1 protein expression (CDK1) | angiogenesis (CD31 staining) (786-0 tumors; 786-0 tumors) | proliferation in vivo (Ki67 staining) (786-0 tumors; 786-0 tumors) | time when tumors became resistant to sunitinib (≥50% increase volume from nadir) (786-0 tumors; second experiment, sunitinib 40 mg/kg) [days] | KLK2 in serum (KLK2 [4]) | KLK2 in plasma (KLK2 [5]) | increased gene expression of KLK2, KLK4, ZBTB16 and MYC [7] | cell proliferation (Ki67 staining) (786-0R cells) | circulating KLK2 levels (KLK2 [8]) | cell viability, single agent ([6]; AR+ 786-0R cells)
increased | significant increased AR expression | 12.3 | higher IC50 | 5.2 | CCN(CC)CCNC(=O)c1c(C)[nH]c(/C=C2\C(=O)Nc3ccc(F)cc32)c1C [sunitinib, N-(2-Diethylaminoethyl)-5-[(Z)-(5-fluoro-2-oxo-1H-indol-3-ylidene)methyl]-2,4-dimethyl-1H-pyrrole-3-carboxamide] | increased the activity of enzalutamide | increased KLK2 | increased CDK1 protein expression | inhibition of angiogenesis | continued to proliferate | 45 | increased | increase of KLK2 | 2-100 fold |  |  | 
 |  |  |  |  | CC(C)C[C@@H](C=O)NC(=O)[C@H](CC(C)C)NC(=O)[C@H](CC(C)C)NC(=O)OCc1ccccc1 [MG132] (Cbz-Leu-Leu-Leu-aldehyde) |  |  |  |  |  |  |  |  |  | restoration of cell proliferation |  | 
 |  |  |  |  | CNC(=O)c1ccc(N2C(=S)N(c3ccc(C#N)c(C(F)(F)F)c3)C(=O)C2(C)C)cc1F [enzalutamide, 4-(3-(4-cyano-3-(trifluoromethyl)phenyl)-5,5-dimethyl-4-oxo-2-thioxoimidazolidin-1-yl)-2-fluoro-N-methylbenzamide] |  | modulated |  |  |  |  |  |  |  |  | decreased | did not have a significant effect
